From PMC5698418 (Nature Communications, 2017)

Assays:
[1] = system: GluA2 mRNA; assay: GluA2 mRNA by RT-qPCR in cortical neurons; assay type: cell-based, mouse; details: BDNF plus AK-7 16.7 µM vs BDNF plus vehicle, 6 h
Method: After experimental treatment, total RNA was isolated from primary cortical neuron cultures using the TRIzol method (Invitrogen). The concentration of total RNA was measured using a NanoDrop 1000 spectrophotometer (Thermo Fisher Scientific, Rockford, IL) and first-strand complementary DNA (cDNA) was synthesized using the iScript cDNA Synthesis Kit (Bio-Rad, Hercules, CA). Real-time PCRs were performed using gene-specific primers and monitored by quantification of SYBR Green I fluorescence using a Bio-Rad CFX96 Real-Time Detection System. Expression was normalized against Gapdh expression. The relative quantification from at least three biological replicates was performed using the comparative cycle threshold (∆∆CT) method.
Primers for real-time reverse transcription PCR experiments were: Arc, 5′-[…]-3′ (forward) and 5′-[…]-3′ (reverse); Map2, 5′-[…]-3′ (forward) and 5′-[…]-3′ (reverse); GluA1, 5′-[…]-3′ (forward) and 5′-[…]-3′ (reverse); GluA2, 5′-[…]-3′ (forward) and 5′-[…]-3′ (reverse); Gapdh, 5′-[…]-3′ (forward) and 5′-[…]-3′ (reverse).
Supplementary Fig. 6. […] Bars represent mean fold-change and error bars indicate range from five biological replicates.

[2] = system: AMPAR currents in primary cortical neurons; assay: Single-cell electrophysiology of AMPA-mediated mEPSCs; assay type: cell-based, mouse
Method: Primary cortical neurons cultured on glass coverslips were recorded at DIV15 in voltage clamp mode. The external solution was kept at 25 °C and contained 120 mM NaCl, 2 mM KCl, 1 mM MgCl2, 1.5 mM CaCl2, 10 mM 4-(2-hydroxyethyl)-1-piperazineethane-sulfonic acid (HEPES) and 15 mM glucose. […]. Patch recording pipettes (3–6 MΩ) were filled with an internal solution (pH 7.2). The internal solution contained 120 mM K-gluconate, 6 mM NaCl, 1 mM MgCl2, 10 mM HEPES, and 0.2 mM ethylene glycol tetraacetic acid. Data were acquired using an HEKA EPC-10 patch-clamp amplifier interfaced with PatchMaster software and analyzed using FitMaster software (HEKA Elektronik, Holliston, MA) and MiniAnalysis (Synaptosoft, Fort Lee, NJ). Miniature EPSCs were recorded for a minimum of 2 min at a holding potential of −80 mV. Analysis of synaptic event data was performed using MiniAnalysis software with event detection threshold set at maximum root mean squared noise level (5 pA). Recordings of synaptic events were assessed for frequency (Hz) and mean amplitude (pA).

[3] = system: Arc puncta in dendrites of primary cortical neurons; assay: Arc puncta along Map2-labeled dendrites (immunocytochemistry); assay type: cell-based, mouse; details: 16.7 µM with BDNF, vs untreated and BDNF alone; for BDNF: BDNF alone vs untreated
Source text: Chemical structure of each compound is presented on top. b Graphs show mean (n = 5) Arc/β-actin ratio (±SEM) for cells treated as in a. […] Tukey’s HSD post hoc test, *p < 0.05; **p < 0.01, ***p < 0.005; ****p < 0.0001. […] Representative captures of DIV14 mouse primary cortical neurons from each experimental condition co-immunostained for Arc (red fluorophore) and Map2 (green fluorophore). White arrowheads show examples of discrete Arc puncta. […] Tukey’s HSD post hoc test, *p < 0.05; ***p < 0.005; ****p < 0.0001
Indirect immunofluorescence detection of antigens was carried out using cortical neurons cultured on poly-L-lysine/laminin-coated coverslips in 24-well plates at a density of 0.1 × 10^7 per well. After experimental treatment, cells were washed twice with PBS and fixed for 30 min at room temperature with 4% paraformaldehyde in PBS. After fixation, cells were washed twice with PBS, permeabilized with PBST (PBS + 0.25% Triton X-100) for 20 min, blocked in blocking solution (PBS + 5% normal goat serum) for another 30 min, and finally incubated overnight at 4 °C with the first primary antibody in blocking solution. The next day, coverslips were extensively washed with PBS and incubated for 2 h at room temperature in the appropriate fluorophore-conjugated secondary antibody solution (Alexa 488- or Alexa 594-conjugated secondary antibody (Molecular Probes, Invitrogen) in blocking solution). After washing with PBS, the coverslips were incubated again overnight in primary antibody solution for the second antigen, and the procedure for conjugation of the fluorophore-conjugated secondary antibody was repeated as above. Finally, cell nuclei were counterstained with 4′,6-diamidino-2-phenylindole (DAPI), and coverslips were mounted on glass slides with ProLong Antifade reagent (Invitrogen).
Quantification of surface GluA1 puncta was performed according to the following strategy. First, overlapping digital images of GluA1 and Map2 immunostainings were collected using a Zeiss AxioObserver Z1 inverted microscope and ×63 oil immersion objective. Second, thresholding and segmentation based on the Map2 images was used to remove GluA1 signals outside of dendritic processes. Importantly, the same background/foreground cutoff threshold was used for images of all experimental conditions. Third, the length of dendrites for each image set was measured and recorded. Finally, distinct GluA1 foreground objects along dendrites >5 pixels were counted using the particle analysis tool in ImageJ and presented as the average number of GluA1 puncta per µm of dendrite length for each experimental condition.

[4] = target: T1, HDAC6 (Homo sapiens, UniProt Q9UBN7); assay: Biochemical HDAC assay (BPS Bioscience), HDAC6; details: 25 µM
T1 construct: purchased BPS Bioscience (San Diego, CA), contract assay service
T1 sequence (Q9UBN7 whole entry): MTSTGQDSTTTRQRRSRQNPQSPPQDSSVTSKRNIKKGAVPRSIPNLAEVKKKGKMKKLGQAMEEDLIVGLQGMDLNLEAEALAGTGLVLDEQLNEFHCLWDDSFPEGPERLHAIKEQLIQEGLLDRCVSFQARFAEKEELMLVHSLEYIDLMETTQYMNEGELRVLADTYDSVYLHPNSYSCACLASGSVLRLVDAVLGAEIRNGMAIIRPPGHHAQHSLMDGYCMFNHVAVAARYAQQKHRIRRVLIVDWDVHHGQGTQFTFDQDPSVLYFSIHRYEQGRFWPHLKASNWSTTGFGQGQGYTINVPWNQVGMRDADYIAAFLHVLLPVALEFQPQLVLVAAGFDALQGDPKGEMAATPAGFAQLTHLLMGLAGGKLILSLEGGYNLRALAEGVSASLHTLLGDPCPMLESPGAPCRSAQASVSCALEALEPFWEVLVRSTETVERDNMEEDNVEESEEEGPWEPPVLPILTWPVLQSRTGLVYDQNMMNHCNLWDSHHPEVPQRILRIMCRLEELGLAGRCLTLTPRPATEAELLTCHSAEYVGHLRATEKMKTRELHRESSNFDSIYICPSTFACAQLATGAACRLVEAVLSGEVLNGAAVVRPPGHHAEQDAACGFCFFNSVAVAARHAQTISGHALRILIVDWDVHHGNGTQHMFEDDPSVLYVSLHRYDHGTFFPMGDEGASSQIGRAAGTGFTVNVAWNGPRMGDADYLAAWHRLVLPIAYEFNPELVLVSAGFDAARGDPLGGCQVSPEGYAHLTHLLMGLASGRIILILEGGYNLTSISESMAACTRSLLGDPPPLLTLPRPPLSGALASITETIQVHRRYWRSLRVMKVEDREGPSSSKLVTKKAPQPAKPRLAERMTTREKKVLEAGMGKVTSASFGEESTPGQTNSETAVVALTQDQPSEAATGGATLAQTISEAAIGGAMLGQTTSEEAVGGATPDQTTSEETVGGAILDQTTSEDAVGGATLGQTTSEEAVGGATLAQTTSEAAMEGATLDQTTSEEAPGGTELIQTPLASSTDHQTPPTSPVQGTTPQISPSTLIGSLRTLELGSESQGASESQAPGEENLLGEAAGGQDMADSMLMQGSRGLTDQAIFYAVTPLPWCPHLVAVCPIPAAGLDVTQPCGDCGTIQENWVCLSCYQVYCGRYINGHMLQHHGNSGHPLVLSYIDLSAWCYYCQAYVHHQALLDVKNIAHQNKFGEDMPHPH

## O=C(Nc1cccc(Br)c1)c1cccc(S(=O)(=O)N2CCCCCC2)c1 [AK-7]
[1]
  GluA2 mRNA expression: does not affect
[2]; AK-7 and BDNF 6 h vs BDNF alone, DIV15
  mEPSC amplitude: significant decrease in the amplitude of mEPSCs
[2]; untreated, BDNF alone, AK-7 plus BDNF
  mEPSC frequency: all similar
[3]
  number of Arc puncta in dendritic projections: significantly greater number of Arc puncta
[4]
  inhibitory activity toward HDAC6: failed to show any inhibitory activity
